Results reported in paper PMC4199632, “Exploring the Anti-Cancer Activity of Novel Thiosemicarbazones Generated through the Combination of Retro-Fragments: Dissection of Critical Structure-Activity Relationships” (PLoS ONE, 2014).

Legend:
[1] = system: normal human dermal fibroblast (NHDF) cells; assay: Proliferation assay (MTS, 96 h), normal mortal cells; assay type: cell-based; settings: 96 h incubation, mean ±SD (3 experiments)
Experimental: (§1) The human cancer cell types (neuroepithelioma (SK-N-MC), colon cancer (HCT116 with wild-type p53 (p53^+/+)), Burkitt's lymphoma (Raji) and cervical carcinoma (HeLa)) cells and normal human dermal fibroblasts (NHDF) were obtained from the American Type Culture Collection (ATCC, Manassas, VA, USA). HCT116 null p53 (p53^−/−) cells were obtained from the Maria Sklodowska-Curie Memorial Cancer Center and Institute of Oncology, Poland.
(§2) The SK-N-MC cells were cultured in minimum essential medium (MEM; Life Technologies, Grand Island, New York, USA) containing 10% (v/v) fetal bovine serum (FBS; Life Technologies), 1 mM sodium pyruvate (Life Technologies), 1% (v/v) non-essential amino acids (Life Technologies), 2 mM L-glutamine (Life Technologies), 100 U/mL penicillin (Life Technologies), 100 µg/mL streptomycin (Life Technologies) and 0.28 µg/mL fungizone (Bristol Myers Squibb Pharmaceuticals, Montreal, Canada). The HCT116 and NHDF cells were grown in Dulbecco's modified Eagle's medium (DMEM; Sigma-Aldrich) supplemented with 12% (v/v) heat-inactivated FBS (HCT116; Life Technologies) or 15% (v/v) FBS (NHDF; Life Technologies), 100 µg/mL of gentamicin (Polfa Warszawa S.A., Warsaw, Poland), 100 µg/mL of streptomycin (Polfa) and 100 U/mL of penicillin (Polfa). The Raji and HeLa cells were cultured in Roswell Park Memorial Institute medium (RPMI-1640; Sigma-Aldrich) with the addition of 10% (v/v) heat-inactivated FBS (Life Technologies) and the supplements described for SK-N-MC cells above. All cell lines were cultured under standard conditions at 37°C in a humidified atmosphere at 5% CO2 and were subcultured every 3–4 days as required.
(§3) The cells were seeded in 96-well plates (SK-N-MC: 1.5×10^4 cells/well; HeLa: 5.0×10^3 cells/well; Raji: 3.0×10^3 cells/well; HCT116: 3.5×10^3 cells/well; NHDF: 3.0×10^3 cells/well) 24 h prior to the addition of the novel compounds. The assays were performed using a 72 h (SK-N-MC, Raji, HeLa) or 96 h (HCT 116, NHDF) incubation period with the agents at 37°C. […] Additionally, DFO and Dp44mT were included as positive controls in all experiments as their activity is well characterized, [42], [50].
(§4) Chelator stock solutions were prepared in DMSO and diluted in media so that the final [DMSO] <0.05%. The results were expressed as a percentage of the control and the resulting IC50 values were calculated using GraphPad Prism 5 (GraphPad Software, Inc., La Jolla, CA, USA). The IC50 was defined as the concentration necessary to reduce the absorbance to 50% of the untreated control. Each individual compound was tested in triplicate in a single experiment, with each experiment being repeated three times. After incubation of HCT 116 and NHDF cells with the tested compounds, 20 µL of the CellTiter 96 Aqueous One Solution - MTS (Promega, Madison, WI, USA) solution was added to each well (with 100 µL of DMEM without phenol red) and incubated for 1 h/37°C. The optical density of the samples was analyzed at 490 nm.

[2] = Ascorbate oxidation assay (iron complexes); assay type: biochemical; settings: iron complex, IBE 3; FeIII 10 µM, ascorbate 100 µM
Experimental: The ability of the iron complexes of the novel ligands to mediate the oxidation of the physiological substrate, ascorbate, was examined using established methods, [18], [22], [52], [53]. Ascorbic acid (100 µM) was prepared immediately prior to each experiment and was incubated in the presence of Fe^III (10 µM; as FeCl3), the chelator (1–60 µM) and a 50-fold molar excess of citrate (500 µM). The absorbance at 265 nm was measured after 10 and 40 min and the difference in absorbance at these time points was calculated. The results of these experiments were expressed as iron-binding equivalents (IBE) due to the different denticity of the chelators examined. The chelators, Dp44mT, DFO and ethylenediaminetetraacetic acid (EDTA) were used as controls as the ability of their iron complexes to oxidize ascorbate has been extensively characterized, [15], [52], [53].
The ability of the iron complexes of the novel TSCs to catalyze the oxidation of the physiological substrate, ascorbate, was important to assess as redox cycling may play a critical role in their anti-proliferative activity, [15], [18], [52], [53]. Thus, the oxidation of ascorbate mediated by the iron complexes of series 1–6 were examined in comparison to the iron complexes of the control compounds, DFO, EDTA and Dp44mT, as the ability of the latter to oxidize ascorbate is well characterized, [15], [52], [53], [68]. The results were expressed as a percentage of the control (no chelator) at iron-binding equivalents (IBEs) of 0.1 (excess “free” iron), 1 (iron-chelator complexes with a fully filled coordination sphere), or 3 (excess free chelator), due to the different denticity of the chelators examined (Fig. 10).
Figure 10 Effect of the iron complexes of (A) series 1, (B) series 2, (C) series 3, (D) series 4, (E) series 5 and (F) series 6 chelators, relative to DFO, Dp44mT and EDTA, on ascorbate oxidation. Chelators at iron-binding equivalent (IBE) ratios of 0.1, 1, and 3 were incubated in the presence of Fe^III (10 µM) and ascorbate (100 µM). The UV-Vis absorbance at 265 nm was recorded after 10 and 40 min, and the difference between the time points was calculated. Results are mean ±SD (3 experiments).

[3] = system: Raji Burkitt's lymphoma cells; assay: Proliferation assay (MTT, 72 h); assay type: cell-based; settings: Homo sapiens, 72 h incubation, mean ±SD (3 experiments)
Experimental: as §1, §2, §3, §4
(§5) MTT (3-[4,5-dimethylthiazol-2-yl]-2,5-diphenyltetrazolium bromide) was used to evaluate the anti-proliferative effects of the chelators in SK-N-MC and Raji cells. Following incubation with the investigated compounds, 10 µL of MTT (5 mg/mL in PBS; Sigma-Aldrich) was added to each well. After a 2 h (SK-N-MC) or 4 h (Raji) incubation, the plates were centrifuged, and the cells were lysed with 100 µL of 10% SDS-50% isobutanol in 0.01 M HCl (SK-N-MC) or DMSO (Raji). The absorbance was measured at 570 nm. The anti-proliferative effects of these novel agents on HeLa cells were estimated using crystal violet staining (0.5% crystal violet solution for 10 min). Finally, the wells were rinsed with water and the cells were lysed with 2% SDS. The optical density of the samples was analyzed at 595 nm.

[4] = system: SK-N-MC neuroepithelioma cells; assay: Proliferation assay (MTT, 72 h); assay type: cell-based; settings: Homo sapiens, 72 h incubation, mean ±SD (3 experiments)
Experimental: as §1, §2, §3, §4, §5

[5] = system: HeLa cervical carcinoma cells; assay: Proliferation assay (crystal violet, 72 h); assay type: cell-based; settings: Homo sapiens, 72 h incubation, mean ±SD (3 experiments)
Experimental: as §1, §2, §3, §4, §5

[6] = system: HCT116 p53+/+, HCT116 p53−/−, Raji, HeLa, SK-N-MC and NHDF cells; assay: Proliferation assay, ranges stated over several cell-types; assay type: cell-based, human; settings: for IC50: Homo sapiens, HCT-116, range over HCT116 p53+/+ and p53−/− cells and over the compounds named, read-out: IC50 range in HCT116 cells; for Therapeutic index, NHDF relative to HCT116 cells: range over HCT116 p53+/+ and p53−/− and over the compounds named
Experimental: as §1, §2, §3, §4, §5

[7] = system: HCT116 p53−/− colon cancer cells; assay: Proliferation assay (MTS, 96 h); assay type: cell-based, human; settings: for IC50: 96 h incubation, MTS, mean ±SD (3 experiments); for Therapeutic index NHDF vs. HCT116 p53−/−: NHDF cell IC50 divided by HCT116 p53−/− IC50
Experimental: as §1, §2, §3, §4

[8] = system: HCT116 p53+/+ colon cancer cells; assay: Proliferation assay (MTS, 96 h); assay type: cell-based, human; settings: for IC50: Homo sapiens, HCT-116, 96 h incubation, MTS, mean ±SD (3 experiments); for Therapeutic index NHDF vs. HCT116 p53+/+: NHDF cell IC50 divided by HCT116 p53+/+ IC50
Experimental: as §1, §2, §3, §4

[9] = system: SK-N-MC cells; assay: Inhibition of cellular 59Fe uptake from 59Fe2-Tf; assay type: cell-based, human; settings: chelator 25 µM, 59Fe2-Tf 0.75 µM, 3 h/37°C
Experimental: The iron transport protein, Tf (Sigma-Aldrich), was labeled with ^59Fe (PerkinElmer Life and Analytical Sciences, Boston, MA) to form ^59Fe2-Tf using standard methods, [7]. Unbound ^59Fe was removed by passage through a Sephadex G25 column and was followed by exhaustive dialysis, [7].
The ability of the chelators to prevent the cellular uptake of ^59Fe from ^59Fe2-Tf was examined using standard methods, [14], [17], [18], [50]. A monolayer of SK-N-MC cells was incubated with medium containing ^59Fe2-Tf (0.75 µM) and the chelator (25 µM) for 3 h at 37°C. The medium was then removed and the cells were washed four times with ice-cold PBS. The cells were then incubated for 30 min at 4°C with the general protease, Pronase (1 mg/mL; Sigma-Aldrich), to remove membrane-bound ^59Fe. The cells were removed using a plastic spatula and centrifuged at 14,000 rpm/1 min to separate internalized from membrane-bound ^59Fe. The cell pellet was resuspended in 1 mL of PBS and the internalized ^59Fe was measured on a γ-scintillation counter. Internalized ^59Fe uptake was calculated as a percentage of the control (medium alone). Again, the novel ligands were compared to DFO and Dp44mT as their ability to inhibit cellular ^59Fe uptake has been extensively characterized using SK-N-MC cells, [14], [17], [18], [50].
Figure 8 Effect of (A) series 1, (B) series 2, (C) series 3, (D) series 4, (E) series 5 and (F) series 6 chelators, relative to the controls DFO and Dp44mT, on ^59Fe uptake from ^59Fe-transferrin by SK-N-MC cells. Cells were incubated for 3 h/37°C with ^59Fe-transferrin (0.75 µM) in the presence or absence of the chelators (25 µM). At the end of this incubation, cells were washed 4 times with ice-cold PBS. Internalization of ^59Fe was assessed by incubation for 30 min/4°C with the protease, Pronase (1 mg/mL). Cellular ^59Fe was then assessed using a γ-scintillation counter. Results are mean ±SD (3 experiments).

Compound | IC50 ([1]; Homo sapiens, NHDF, 96 h) [nM] | Ascorbate oxidation (% of the control) [2] | IC50 [3] [nM] | IC50 [4] [nM] | IC50 [5] [nM] | IC50 [6] [nM] | Therapeutic index, NHDF relative to HCT116 cells [6] | IC50 ([7]; Homo sapiens, HCT-116, 96 h) [nM] | Therapeutic index NHDF vs. HCT116 p53−/− [7] | IC50 [8] [nM] | Therapeutic index NHDF vs. HCT116 p53+/+ [8] | IC50 [1] [nM] | Decrease in anti-proliferative efficacy, HCT116 p53+/+ vs HCT116 p53−/− ([6]; comparison of IC50 in HCT116 p53+/+ and p53−/− cells) [fold] | IC50 [7] [nM] | Internalized 59Fe uptake from 59Fe2-Tf (% of the control) [9]
S=C(NN=C(c1ccccn1)c1ccccn1)N1CCN(c2ccccc2)CC1 [1b] | 1.7 ± 0.7 | 200–265% | 0.3 ± 0.03 | 50 ± 10 | 570 ± 160 | 0.8 to 90 | 2 | 0.8 ± 0.1 | 2 | 0.8 ± 0.1 | 2 |  |  |  | 
S=C(NN=C(c1ccccn1)c1ccccn1)N1CCN(c2ccccn2)CC1 [1d, Z-N′-(di(pyridin-2-yl)methylene)-4-(pyridin-2-yl)piperazine-1-carbothiohydrazide] | 160 to 10600 | 200–265% | 1.3 ± 0.1 | 20 ± 10 | 30 ± 20 | 2 to 17 | 18–2650 | 9 ± 1 | 18 | 2 | 80 | 160 ± 40 |  |  | 
Oc1cccc2ccc(/C=N/NC(=S)N3CCN(c4cnccn4)CC3)nc12 [3e] | 12100 ± 3600 |  | 40 ± 20 | > 6250 | 2390 ± 20 |  |  | 5000 |  | 50 ± 30 |  |  | 100 | 5010 ± 2550 | 
CN(C(=S)N/N=C/c1ccc2cccc(O)c2n1)C1CCCCC1 [3f] | 5360 ± 1990 |  | 10 | > 6250 | 2570 ± 460 |  |  | 4350 ± 1350 |  | 3110 ± 1920 |  |  |  |  | 3.6–11.5%
S=C(N/N=C/c1cnc2ccccc2n1)N1CCOCC1 [5c] | 11600 ± 1800 |  | 240 ± 40 | 2870 ± 1250 | 860 ± 90 |  |  | 5840 ± 1650 |  | 2030 ± 1240 |  |  |  |  | 3.6–11.5%
Oc1ccccc1/C=N/NC(=S)N1CCOCC1 [6c] | > 25000 |  | 3790 ± 80 | > 6250 | 18200 ± 1300 |  |  | 16400 ± 3100 |  | 15400 ± 1700 |  |  |  |  | 3.6–11.5%
